Laboratory results: patent publication US20190125822A1, “COMPOSITION FOR IMPROVING OR PREVENTING NONALCOHOLIC FATTY LIVER” (KOHJIN LIFE SCIENCES CO., LTD., priority 2015, published 2019)

Assays:
[1] = tested on: subjects who had NAFLD in 31 IU/L or more of ALT; settings: 300 mg per day oral
[2] = tested on: Mice (C57/B6J) fed with high-fat food; settings: 20 weeks old
From the text: Mice (C57/B6J, 8 weeks old male) were divided into 4 groups (5 animals each), and the first group (DB) was freely fed with ordinary food (CertifiedDiet “MF” manufactured by Oriental Yeast Co., ltd.). The second group (HFD) was freely fed with high-fat food (High Fat Diet 32, manufactured by CLEA Japan, Inc.), […].
When the mouse was 20 weeks old, the body weight, the liver weight, the serum aspartate aminotransferase (AST), the alanine aminotransferase (ALT), the serum triglyceride (TG), the free fatty acid value (FFA) and the total cholesterol value (T-cho) were measured.

[3] = HFD6 and HFD60 groups in comparison to HFD group
[4] = high-fat food, glutathione 6 and 60 mg/kg/day in water

## N[C@@H](CCC(=O)N[C@@H](CS)C(=O)NCC(=O)O)C(=O)O [glutathione]
[1]; after treatment, individual subject per table row
  FibroScan (after treatment) CAP: 280 dBe
[1]; Case IDs 1 to 9 of 16 subjects, at any week after initiation
  improvement of ALT after administration in comparison to ALT before the administration (0 wk): ≥ 20%
[2]; [3]
  FFA (free fatty acid value): significant decrease
  T-cho (total cholesterol value): significant decrease
[2]; [4]
  liver weight: decreased dependently on the concentration
  ratio of liver weight/body weight: decrease of the body weight ratio was also recognized
[2]; high-fat food, glutathione 6 or 60 mg/kg/day in water
  body weight: decrease of the body weight was recognized
[2]; serum, HFD6 and HFD60 groups in comparison to HFD group
  TG (triglyceride value): significant decrease
